≈ marks a conversion by molar mass, not a printed value.
Legend:
Escherichia coli = assay: Antibacterial activity against Escherichia coli NRRL B3704 by microbroth dilution method; type: functional
Nakaseomyces glabratus = assay: Antifungal activity against Candida glabrata by broth dilution antifungal susceptibility testing; type: functional
Staphylococcus aureus = assay: Antibacterial activity against Staphylococcus aureus NRRL B767 by micro-broth dilution method; type: functional
Aeromonas hydrophila = assay: Antibacterial activity against Aeromonas hydrophila by micro-broth dilution method; type: functional
Candida albicans = assay: Antifungal activity against Candida albicans by micro-broth dilution method; type: functional
Enterococcus faecalis = assay: Antibacterial activity against Streptococcus faecalis NRRL B14617 by micro-broth dilution method; type: functional
Bacillus cereus = assay: Antibacterial activity against Bacillus cereus NRRL B3711 by micro-broth dilution method; type: functional
Salmonella typhimurium = assay: Antibacterial activity against Salmonella Typhimurium NRRL B4420 by microbroth dilution method; type: functional, Salmonella enterica subsp. enterica serovar Typhimurium; conditions: Salmonella enterica

SMILES	MIC (Escherichia coli) [µg/mL]	MIC (Nakaseomyces glabratus) [µg/mL]	MIC (Staphylococcus aureus) [µg/mL]	MIC (Aeromonas hydrophila) [µg/mL]	MIC (Candida albicans) [µg/mL]	MIC (Enterococcus faecalis) [µg/mL]	MIC (Bacillus cereus) [µg/mL]	MIC (Salmonella typhimurium) [µg/mL]
O=[N+]([O-])c1ccc(-c2csc(N3N=C(c4cccs4)CC3c3ccncc3)n2)cc1 (stereo not given)	125 (≈ 288 µM)	125 (≈ 288 µM)	125 (≈ 288 µM)	125 (≈ 288 µM)	125 (≈ 288 µM)	250 (≈ 577 µM)	62.5 (≈ 144 µM)	125 (≈ 288 µM)
COc1ccc(-c2csc(N3N=C(c4cccs4)CC3c3ccncc3)n2)cc1 (stereo not given)	125 (≈ 299 µM)	62.5 (≈ 149 µM)	125 (≈ 299 µM)	125 (≈ 299 µM)	62.5 (≈ 149 µM)	250 (≈ 597 µM)	62.5 (≈ 149 µM)	125 (≈ 299 µM)
Clc1ccc(-c2csc(N3N=C(c4cccs4)CC3c3ccccn3)n2)cc1 (stereo not given)	125 (≈ 296 µM)	125 (≈ 296 µM)	250 (≈ 591 µM)	125 (≈ 296 µM)	125 (≈ 296 µM)	250 (≈ 591 µM)	250 (≈ 591 µM)	250 (≈ 591 µM)
Clc1ccc(-c2csc(N3N=C(c4cccs4)CC3c3cccnc3)n2)cc1 (stereo not given)	250 (≈ 591 µM)	250 (≈ 591 µM)	250 (≈ 591 µM)	250 (≈ 591 µM)	250 (≈ 591 µM)	125 (≈ 296 µM)	125 (≈ 296 µM)	250 (≈ 591 µM)
O=[N+]([O-])c1ccc(-c2csc(N3N=C(c4cccs4)CC3c3cccnc3)n2)cc1 (stereo not given)	250 (≈ 577 µM)	62.5 (≈ 144 µM)	31.2 (≈ 72.1 µM)	31.2 (≈ 72.1 µM)	62.5 (≈ 144 µM)	125 (≈ 288 µM)	125 (≈ 288 µM)	125 (≈ 288 µM)
c1ccc(-c2csc(N3N=C(c4cccs4)CC3c3cccnc3)n2)cc1 (stereo not given)	250 (≈ 643 µM)	250 (≈ 643 µM)	125 (≈ 322 µM)	250 (≈ 643 µM)	250 (≈ 643 µM)	250 (≈ 643 µM)	250 (≈ 643 µM)	250 (≈ 643 µM)
Cc1ccc(-c2csc(N3N=C(c4cccs4)CC3c3ccccn3)n2)cc1 (stereo not given)	125 (≈ 311 µM)	62.5 (≈ 155 µM)	250 (≈ 621 µM)	62.5 (≈ 155 µM)	62.5 (≈ 155 µM)	250 (≈ 621 µM)	250 (≈ 621 µM)	125 (≈ 311 µM)
COc1ccc(-c2csc(N3N=C(c4cccs4)CC3c3ccccn3)n2)cc1 (stereo not given)	125 (≈ 299 µM)	62.5 (≈ 149 µM)	125 (≈ 299 µM)	62.5 (≈ 149 µM)	62.5 (≈ 149 µM)	250 (≈ 597 µM)	250 (≈ 597 µM)	125 (≈ 299 µM)
COc1ccc(-c2csc(N3N=C(c4cccs4)CC3c3cccnc3)n2)cc1 (stereo not given)	250 (≈ 597 µM)	125 (≈ 299 µM)	250 (≈ 597 µM)	125 (≈ 299 µM)	125 (≈ 299 µM)	250 (≈ 597 µM)	250 (≈ 597 µM)	125 (≈ 299 µM)

The remaining molecules from weak to strong by MIC (Escherichia coli), led by results:

MIC (Escherichia coli) [µg/mL]	MIC (Nakaseomyces glabratus) [µg/mL]	MIC (Staphylococcus aureus) [µg/mL]	MIC (Aeromonas hydrophila) [µg/mL]	MIC (Candida albicans) [µg/mL]	MIC (Enterococcus faecalis) [µg/mL]	MIC (Bacillus cereus) [µg/mL]	MIC (Salmonella typhimurium) [µg/mL]	SMILES
250 (≈ 621 µM)	125 (≈ 311 µM)	125 (≈ 311 µM)	250 (≈ 621 µM)	125 (≈ 311 µM)	250 (≈ 621 µM)	250 (≈ 621 µM)	125 (≈ 311 µM)	Cc1ccc(-c2csc(N3N=C(c4cccs4)CC3c3cccnc3)n2)cc1 (stereo not given)
250 (≈ 643 µM)	250 (≈ 643 µM)	15.6 (≈ 40.2 µM)	31.2 (≈ 80.4 µM)	250 (≈ 643 µM)	31.2 (≈ 80.4 µM)	31.2 (≈ 80.4 µM)	62.5 (≈ 161 µM)	c1ccc(-c2csc(N3N=C(c4cccs4)CC3c3ccncc3)n2)cc1 (stereo not given)
250 (≈ 621 µM)	125 (≈ 311 µM)	125 (≈ 311 µM)	125 (≈ 311 µM)	125 (≈ 311 µM)	250 (≈ 621 µM)	62.5 (≈ 155 µM)	125 (≈ 311 µM)	Cc1ccc(-c2csc(N3N=C(c4cccs4)CC3c3ccncc3)n2)cc1 (stereo not given)
125 (≈ 296 µM)	62.5 (≈ 148 µM)	62.5 (≈ 148 µM)	62.5 (≈ 148 µM)	125 (≈ 296 µM)	62.5 (≈ 148 µM)	62.5 (≈ 148 µM)	62.5 (≈ 148 µM)	Clc1ccc(-c2csc(N3N=C(c4cccs4)CC3c3ccncc3)n2)cc1 (stereo not given)
125 (≈ 288 µM)	125 (≈ 288 µM)	250 (≈ 577 µM)	125 (≈ 288 µM)	125 (≈ 288 µM)	500 (≈ 1150 µM)	500 (≈ 1150 µM)	250 (≈ 577 µM)	O=[N+]([O-])c1ccc(-c2csc(N3N=C(c4cccs4)CC3c3ccccn3)n2)cc1 (stereo not given)
125 (≈ 322 µM)	62.5 (≈ 161 µM)	250 (≈ 643 µM)	62.5 (≈ 161 µM)	62.5 (≈ 161 µM)	250 (≈ 643 µM)	250 (≈ 643 µM)	125 (≈ 322 µM)	c1ccc(-c2csc(N3N=C(c4cccs4)CC3c3ccccn3)n2)cc1 (stereo not given)

Reference: ChEMBL document CHEMBL1143796, “Synthesis and antimicrobial activity of 1-(4-aryl-2-thiazolyl)-3-(2-thienyl)-5-aryl-2-pyrazoline derivatives” (2007)
